Results as given in the supplement of paper PMC10307832.

Assays:
Experiment in all cases: relative viability (nuclei count vs DMSO), 5 days (fraction); higher = more cells survive
GSK126 + Lapatinib = compound: CC[C@H](C)N1C=C(C2=C(C=C(C=C21)C3=CN=C(C=C3)N4CCNCC4)C(=O)NCC5=C(C=C(NC5=O)C)C)C [GSK126] + CS(=O)(=O)CCNCc1ccc(-c2ccc3ncnc(Nc4ccc(OCc5cccc(F)c5)c(Cl)c4)c3c2)o1 [Lapatinib] (partner 2 µM)
In short: (§1)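 Relative viability equals treated-well nuclei counts divided by vehicle-well nuclei counts. Counts came from 4× images of lung cancer cell lines grown in 1536-well plates for 5 days after pin-tool dosing on the day after seeding. Dosing used one drug alone or a fixed anchor-drug dose plus five library-drug doses (not always all listed) in √10 steps, and values are medians of duplicate plates.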

MLN4924 + Dasatinib = compound: NS(=O)(=O)OC[C@@H]1C[C@@H](n2ccc3c(N[C@H]4CCc5ccccc54)ncnc32)C[C@@H]1O [MLN4924] + Cc1nc(Nc2ncc(C(=O)Nc3c(C)cccc3Cl)s2)cc(N2CCN(CCO)CC2)n1 [Dasatinib] (partner 0.075 µM)
In short: as §1

GSK126 + Crizotinib = compound: CC[C@H](C)N1C=C(C2=C(C=C(C=C21)C3=CN=C(C=C3)N4CCNCC4)C(=O)NCC5=C(C=C(NC5=O)C)C)C [GSK126] + C[C@@H](Oc1cc(-c2cnn(C3CCNCC3)c2)cnc1N)c1c(Cl)ccc(F)c1Cl [Crizotinib] (partner 1 µM)
In short: as §1

Row | Cell Line | relative viability (GSK126 + Lapatinib; first compound 0.08 µM) | relative viability (GSK126 + Lapatinib; first compound 0.253 µM) | relative viability (GSK126 + Lapatinib; first compound 0.8 µM) | relative viability (GSK126 + Lapatinib; first compound 2.53 µM) | relative viability (GSK126 + Lapatinib; first compound 8 µM) | relative viability (MLN4924 + Dasatinib; first compound 0.04 µM) | relative viability (MLN4924 + Dasatinib; first compound 0.1265 µM) | relative viability (MLN4924 + Dasatinib; first compound 0.4 µM) | relative viability (MLN4924 + Dasatinib; first compound 1.265 µM) | relative viability (MLN4924 + Dasatinib; first compound 4 µM) | relative viability (GSK126 + Crizotinib; first compound 0.08 µM) | relative viability (GSK126 + Crizotinib; first compound 0.253 µM) | relative viability (GSK126 + Crizotinib; first compound 0.8 µM) | relative viability (GSK126 + Crizotinib; first compound 2.53 µM) | relative viability (GSK126 + Crizotinib; first compound 8 µM)
1 | NCI-H1793 | 0.867 | 0.467 | 0.647 | 0.583 | 0.629 | 0.384 | 0.366 | 0.408 | 0.345 | 0.325 |  |  |  |  | 
2 | HCC-44 | 0.998 | 1.07 | 1.04 | 0.846 | 1.02 |  |  |  |  |  | 0.766 | 0.864 | 0.788 | 0.64 | 0.78
3 | NCI-H3122 | 1.01 | 1.01 | 1.04 | 0.965 | 0.95 | 0.148 | 0.487 | 0.147 | 0.056 | 0.071 | 0.251 | 0.341 | 0.292 | 0.267 | 0.347
4 | COR-L23 | 1.04 | 0.958 | 0.943 | 0.914 | 0.818 | 0.487 | 0.617 | 0.507 | 0.154 | 0.101 | 0.663 | 0.559 | 0.659 | 0.611 | 0.713
5 | 201T | 1.04 | 1.04 | 1.09 | 1.1 | 1.16 | 0.69 | 0.615 | 0.598 | 0.319 | 0.318 | 1.1 | 1.06 | 1.03 | 0.93 | 1.09
6 | NCI-H23 | 1.26 | 1.02 | 1.02 | 1.22 | 1.2 | 0.722 | 0.785 | 0.681 | 0.335 | 0.208 | 0.662 | 0.486 | 0.485 | 0.523 | 0.653
7 | LCLC-103H |  |  |  |  |  | 0.452 | 0.569 | 0.653 | 0.141 | 0.112 | 1.07 | 1.18 | 1.01 | 1.01 | 1
8 | NCI-H2087 | 1.41 | 0.931 | 1.11 | 1.22 | 1.3 | 0.742 | 0.574 | 0.533 | 0.126 | 0.0652 | 0.861 | 0.985 | 0.888 | 0.821 | 0.867
9 | NCI-H1944 | 1.04 | 0.724 | 0.859 | 0.865 | 0.989 | 0.218 | 0.232 | 0.23 | 0.155 | 0.133 | 1.3 | 1.08 | 1.1 | 1.05 | 1.23
10 | HARA | 0.734 | 0.602 | 0.736 | 0.804 | 0.807 | 0.362 | 0.358 | 0.311 | 0.0814 | 0.0506 | 1.13 | 0.986 | 1.01 | 1.12 | 0.817
11 | NCI-H2347 | 1.04 | 1.04 | 0.917 | 0.994 | 0.94 | 0.265 | 0.369 | 0.231 | 0.218 | 0.244 | 0.706 | 0.667 | 0.658 | 0.708 | 0.559
12 | COR-L 105 | 0.35 | 0.371 | 0.39 | 0.372 | 0.339 | 0.398 | 0.289 | 0.33 | 0.222 | 0.225 | 0.859 | 0.935 | 0.783 | 0.687 | 0.62
13 | A-427 | 1.14 | 1.1 | 1.05 | 1.07 | 0.962 | 0.367 | 0.529 | 0.248 | 0.145 | 0.179 | 0.898 | 1.01 | 0.857 | 0.856 | 0.84
14 | HCC-15 | 0.841 | 0.888 | 0.806 | 0.785 | 0.727 | 0.498 | 0.183 | 0.132 | 0.0695 | 0.0802 | 0.882 | 0.873 | 0.786 | 0.748 | 0.709
15 | NCI-H1623 |  |  |  |  |  | 0.626 | 0.573 | 0.341 | 0.227 | 0.183 |  |  |  |  | 
16 | NCI-H2342 |  |  |  |  |  | 0.343 | 0.344 | 0.339 | 0.354 | 0.355 |  |  |  |  | 
17 | NCI-H2023 | 1.33 | 0.797 | 1.04 | 1.23 | 1.2 | 0.618 | 0.602 | 0.325 | 0.0611 | 0.0616 | 0.839 | 0.678 | 0.747 | 0.74 | 0.747
18 | ABC-1 | 1.26 | 1.29 | 1.07 | 1.18 | 0.872 | 0.426 | 0.433 | 0.302 | 0.213 | 0.237 | 1.06 | 1.16 | 1.23 | 1.17 | 0.937
19 | LC-2-ad | 1.05 | 1.03 | 0.9 | 0.894 | 1.05 | 0.551 | 0.408 | 0.498 | 0.144 | 0.2 | 0.484 | 0.357 | 0.512 | 0.454 | 0.398
20 | NCI-H460 | 0.971 | 1.03 | 0.879 | 1.14 | 1.1 | 0.495 | 0.657 | 0.849 | 0.377 | 0.0538 | 1.13 | 0.929 | 0.811 | 0.9 | 0.875
21 | NCI-H1915 | 1.08 | 0.97 | 1.03 | 0.978 | 0.993 | 0.352 | 0.353 | 0.318 | 0.222 | 0.177 | 1.02 | 0.93 | 0.917 | 0.878 | 0.912
22 | NCI-H1299 | 0.968 | 0.997 | 0.952 | 0.931 | 0.929 |  |  |  |  |  | 0.952 | 0.959 | 0.779 | 0.941 | 0.873
23 | HOP-62 | 1.17 | 1.05 | 1.07 | 1.06 | 0.937 | 0.887 | 0.742 | 0.427 | 0.0794 | 0.076 | 0.965 | 0.996 | 0.788 | 0.726 | 0.928
24 | EPLC-272H | 0.995 | 0.975 | 0.851 | 1.06 | 0.915 | 0.499 | 0.448 | 0.071 | 0.108 | 0.11 | 1.07 | 0.843 | 0.909 | 0.719 | 0.789
